One assay addresses MPS1 (Homo sapiens (Human), UniProt P33981). Kind of assay: Biochemical assay for inhibitors of MPS1 kinase activity (trans-phosphorylation, Dowex). The conditions noted are these: 15 μM ATP, P38-tide substrate. The text has this:
Cloning, Expression and Purification of Recombinant MPS1 Full Length Protein.
MPS1 full length (corresponding to residues 2-857 of the full length sequence, see Swiss-Prot accession number P33981) was PCR amplified from the full-length human MPS1 gene present in house as clone pGEX4t_MPS1.
Baculoviruses were generated by cotransfecting Sf9 insect cells with the expression vector and the viral DNA using the BaculoGold® transfection kit (Pharmingen). Viral supernatant was recovered after 5 days and subjected to 3 rounds of amplification to increase viral titer. Recombinant protein was produced by infecting High5 insect cells. After 72 h of infection at 21° C., cells were recovered, pelletted and freezed at −80° C. For purification of recombinant protein, pellet was thawed, resuspended in lysis buffer (PBS, NaCl 150 mM, Glycerol 10%, CHAPS 0.1%, DTT 20 mM, protease and phosphatase inhibitors) and lysed by Gaulin. Lysate was cleared by centrifugation and loaded on a GST affinity column. After extensive wash, recombinant protein was cleaved by a specific protease and eluted by incubation.
To get a fully activated enzyme, the protein was then subjected to auto-phosphorylation in presence of ATP 1 mM at 25° C. for 2 h in kinase buffer (Hepes pH 7.5 50 mM, MgCl2 2.5 mM, MnCl2 1 mM, DTT 1 mM, phosphatase inhibitors); ATP was then removed with a desalting column.
Biochemical Assay for Inhibitors of MPS1 Kinase Activity The inhibitory activity of putative kinase inhibitors and the potency of selected compounds were determined using a trans-phosphorylation assay.
(§1) Specific peptide or protein substrates are trans-phosphorylated by their specific ser-thr or tyr kinase in the presence of ATP traced with ^33P-γ-ATP, and in the presence of their own optimal buffer and cofactors.
(§2) At the end of the phosphorylation reaction, more than 98% unlabeled ATP and radioactive ATP is captured by an excess of the ion exchange dowex resin; the resin then settles down to the bottom of the reaction plate by gravity.
(§3) Supernatant is subsequently withdrawn and transferred into a counting plate, then evaluated by β-counting.
The buffer for MPS1 assay was composed of HEPES 50 mM, at pH 7.5, with 2.5 mM MgCl2, 1 mM MnCl2, 1 mM DTT, 3 μM Na3VO4, 2 mM β-glycerophosphate and 0.2 mg/mL BSA.
The assay was run with a final concentration MPS1 of 5 nM, in the presence of 15 μM ATP and 1.5 nM ^33P-γ-ATP; the substrate was P38-tide, used at 200 μM.
Test compounds are received as a 1 mM solution in 100% DMSO, distributed into 96 or 384 well plates: • a) for percent inhibition studies (HTS), individual dilution plates at 1 mM are diluted at a 3× concentration (30 μM) in ddH2O (3% DMSO=final concentration) using a Beckman NX automated pipetting platform. […]

The next assay has as its target PIM1 (Homo sapiens (Human), UniProt P11309). Description: Biochemical assay for inhibitors of PIM1 kinase activity (trans-phosphorylation, Dowex). The conditions noted are these: 200 μM ATP, Aktide substrate. The method, then: The short forms and abbreviations used herein have the following meaning: • Ci Curie • DMSO dimethylsulfoxide • KDa kiloDalton • microCi microCurie • mg milligram • microg microgram • ng nanogram • L liter • mL milliliter • μL microliter • M molar • mM millimolar • μM micromolar • nM nanomolar Biochemical Assay for Inhibitors of PIM1 Kinase Activity
The inhibitory activity of putative kinase inhibitors and the potency of selected compounds were determined using a trans-phosphorylation assay.
as §1, §2, §3
The buffer for PIM1 assay was composed of HEPES 50 mM, at pH 7.5, with 10 mM MgCl2, 1 mM DTT, 3 μM NaVO3, and 0.2 mg/mL BSA. […]
Data are analyzed by an internally customized version of the “Assay Explorer” SW package, which provides sigmoidal fitting of the ten-dilution curves for IC50 determination in secondary assay/hit confirmation routines.

In the next assay the target is PIM2 (Homo sapiens (Human), UniProt Q9P1W9). Kind of assay: PIM2 kinase inhibition assay: Dowex technique. Format: biochemical. The conditions noted are these: 4 μM ATP, Aktide substrate. The method, then: Method for PIM2 Kinase Inhibition Assay: Dowex Technique
The buffer for PIM2 assay was composed of HEPES 50 mM, at pH 7.5, with 1 mM MgCl2, 1 mM DTT, 3 μM Na3VO4, and 0.2 mg/mL BSA.
Full-length human PIM2 was expressed and purified as described in Fedorov O, et al., PNAS 2007 104, 51, 20523-28.
Enzyme concentration=1.5 nM
Aktide substrate (Chemical Abstract Service Registry Number 324029-01-8)=5 μM
See above: same procedure as described for PIM1.

Structures can show the parent of a compound that is named as a salt.

Sequence of MPS1 (P33981 2-857): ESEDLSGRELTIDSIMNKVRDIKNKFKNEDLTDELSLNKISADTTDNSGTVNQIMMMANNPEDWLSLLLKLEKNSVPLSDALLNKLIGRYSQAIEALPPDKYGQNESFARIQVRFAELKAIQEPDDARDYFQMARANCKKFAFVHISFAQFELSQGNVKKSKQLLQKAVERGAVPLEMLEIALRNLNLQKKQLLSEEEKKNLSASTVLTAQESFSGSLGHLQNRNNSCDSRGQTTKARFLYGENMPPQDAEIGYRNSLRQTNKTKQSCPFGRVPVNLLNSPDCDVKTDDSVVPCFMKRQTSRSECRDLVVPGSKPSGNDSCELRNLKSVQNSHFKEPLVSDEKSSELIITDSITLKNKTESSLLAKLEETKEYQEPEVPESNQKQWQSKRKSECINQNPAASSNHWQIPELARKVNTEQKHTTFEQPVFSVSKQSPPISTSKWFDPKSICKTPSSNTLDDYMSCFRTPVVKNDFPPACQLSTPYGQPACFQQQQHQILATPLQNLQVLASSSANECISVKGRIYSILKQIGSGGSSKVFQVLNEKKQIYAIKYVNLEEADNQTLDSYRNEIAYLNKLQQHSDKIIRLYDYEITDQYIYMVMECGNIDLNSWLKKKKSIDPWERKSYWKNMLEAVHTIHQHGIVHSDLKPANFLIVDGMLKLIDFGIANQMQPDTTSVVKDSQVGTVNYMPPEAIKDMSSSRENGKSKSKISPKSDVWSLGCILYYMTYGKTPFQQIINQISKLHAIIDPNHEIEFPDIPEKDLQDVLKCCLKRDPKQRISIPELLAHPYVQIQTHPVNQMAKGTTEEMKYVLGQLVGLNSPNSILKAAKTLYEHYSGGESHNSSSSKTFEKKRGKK
Sequence of PIM2 (Q9P1W9 whole entry): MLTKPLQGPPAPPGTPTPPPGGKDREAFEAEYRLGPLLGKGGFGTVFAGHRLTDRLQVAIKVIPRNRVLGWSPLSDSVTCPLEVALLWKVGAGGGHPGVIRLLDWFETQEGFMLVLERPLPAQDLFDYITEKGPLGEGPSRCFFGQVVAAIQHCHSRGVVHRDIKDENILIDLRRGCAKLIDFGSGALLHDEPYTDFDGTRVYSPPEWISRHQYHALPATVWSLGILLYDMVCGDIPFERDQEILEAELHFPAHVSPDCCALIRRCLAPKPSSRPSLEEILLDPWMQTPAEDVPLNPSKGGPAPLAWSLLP
Sequence of PIM1 (P11309 whole entry): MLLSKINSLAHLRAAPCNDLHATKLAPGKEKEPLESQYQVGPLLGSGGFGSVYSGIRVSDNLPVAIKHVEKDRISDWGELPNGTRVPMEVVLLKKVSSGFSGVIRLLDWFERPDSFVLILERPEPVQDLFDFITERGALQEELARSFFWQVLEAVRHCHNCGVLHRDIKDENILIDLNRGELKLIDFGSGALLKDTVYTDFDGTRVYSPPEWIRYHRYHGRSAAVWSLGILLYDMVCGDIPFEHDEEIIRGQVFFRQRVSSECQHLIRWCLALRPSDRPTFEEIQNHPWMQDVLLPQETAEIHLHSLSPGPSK

As a reminder, the IC50 is the concentration at which inhibition is half-maximal. Low values mean inhibition by little substance, high ones a need for much substance. For `CCc1cccc(CC)c1NC(=O)c1cc(-c2ccnc(Nc3ccc(N4CCN(C)CC4)cc3OC)n2)n(C)n1` [Compound 3, N-(2,6-diethylphenyl)-5-(2-{[2-methoxy-4-(4-methylpiperazin-1-yl)phenyl]amino}pyrimidin-4-yl)-1-methyl-1H-pyrazole-3-carboxamide], the IC50 against MPS1 was under 200 nM. Turning to `CCc1cccc(CC)c1NC(=O)c1cc(-c2ccnc(Nc3ccc(N4CCN(CCO)CC4)cc3OC)n2)n(C)n1` [Compound 8, N-(2,6-diethylphenyl)-5-[2-({4-[4-(2-hydroxyethyl)piperazin-1-yl]-2-methoxyphenyl}amino)pyrimidin-4-yl]-1-methyl-1H-pyrazole-3-carboxamide], on MPS1, the IC50 was under 200 nM.

The compound `CCc1cccc(CC)c1NC(=O)c1cc(-c2ccnc(Nc3ccc(N4CCN(C)CC4)cc3OC)n2)[nH]n1` [Compound 11, N-(2,6-diethylphenyl)-5-(2-{[2-methoxy-4-(4-methylpiperazin-1-yl)phenyl]amino}pyrimidin-4-yl)-1H-pyrazole-3-carboxamide] returned an IC50 against MPS1 of under 200 nM. As for `CCc1cccc(CC)c1NC(=O)c1cc(-c2ccnc(Nc3ccc(N4CCN(CCO)CC4)cc3OC)n2)[nH]n1` [Compound 13, N-(2,6-diethylphenyl)-5-[2-({4-[4-(2-hydroxyethyl)piperazin-1-yl]-2-methoxyphenyl}amino)pyrimidin-4-yl]-1H-pyrazole-3-carboxamide], at MPS1, the IC50 is under 200 nM. Regarding `CSc1nccc(-c2cc(C(N)=O)nn2C2CCNCC2)n1` [Compound 21, 5-[2-(methylsulfanyl)pyrimidin-4-yl]-1-(piperidin-4-yl)-1H-pyrazole-3-carboxamide hydrochloride], the half-maximal inhibitory concentration (IC50) on PIM1 and against PIM2 was under 10000 nM in each case.
